Test results from US20240140958A1, “FUSED QUADRACYCLIC COMPOUNDS, COMPOSITIONS AND USES THEREOF” (Tabomedex Biosciences, Inc., priority 2021, published 2024).

What was measured:
[1] = molecular target: T1, MAPKAPK2 Recombinant Human Protein (Homo sapiens, UniProt P49137); assay: MK2 kinase assay (Z'-LYTE kinase assay kit); conditions: inhibition of MK2 biochemical activity; 90 min incubation at room temperature
T1 construct: purchased ThermoFisher pv3317
In short: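 Z'-LYTE FRET assay with recombinant human MAPKAPK2 and peptide substrate; compound and ATP added, kinase reaction 90 min at room temperature, then development 60 min before stop. Coumarin (445 nm) and fluorescein (520 nm) emissions read at 400 nm excitation.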

THP-1 cells = assay: THP-1 cell assay: LPS-stimulated pSer78-Hsp27 ELISA; type: cell-based; conditions: Homo sapiens, PMA-differentiated THP-1 cells, compound 60 min before 20 ng/mL LPS for 30 min
In short: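 PMA-differentiated THP-1 cells (20 ng/mL PMA 24 h, then 48 h recovery) pretreated with compound 60 min, then stimulated with 20 ng/mL LPS for 30 min. Lysates (~2.5 μg/well) assayed by sandwich ELISA for pSer78-Hsp27, absorbance at 450 nm.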

T1 sequence (P49137 whole entry): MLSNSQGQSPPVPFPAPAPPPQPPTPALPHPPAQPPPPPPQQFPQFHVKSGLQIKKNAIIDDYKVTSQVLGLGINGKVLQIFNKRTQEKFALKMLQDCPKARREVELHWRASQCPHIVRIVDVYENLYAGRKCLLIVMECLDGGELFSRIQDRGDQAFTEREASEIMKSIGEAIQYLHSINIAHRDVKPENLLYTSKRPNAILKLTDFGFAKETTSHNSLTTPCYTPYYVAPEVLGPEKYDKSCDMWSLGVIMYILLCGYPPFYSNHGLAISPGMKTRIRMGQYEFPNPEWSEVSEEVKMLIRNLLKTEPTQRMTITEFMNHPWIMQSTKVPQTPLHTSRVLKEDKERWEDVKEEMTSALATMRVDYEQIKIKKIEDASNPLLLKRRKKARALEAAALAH

SMILES	IC50 [1] [nM]	IC50 (THP-1 cells) [nM]
CN(C)CCNC(=O)c1ccc2c(c1)Cn1cc(-c3ccc(C#N)cc3)cc1-c1nccn1-2 [Example 101, 12-(4-Cyanophenyl)-N-(2-(dimethylamino)ethyl)-9H-benzo[e]imidazo[2,1-c]pyrrolo[1,2-a][1,4]diazepine-7-carboxamide]	50 to 100	100 to 200
CN1CC2(C1)CN(C(=O)c1ccc3c(c1)Cn1cc(-c4ccc(C#N)cc4)cc1-c1nccn1-3)C2 [Example 109]	50 to 100	200 to 300
CN(C)CC1CN(C(=O)c2ccc3c(c2)Cn2cc(-c4ccc(C#N)cc4)cc2-c2nccn2-3)C1 [Example 117]	50 to 100	500 to 1000
CN1CC(NC(=O)c2ccc3c(c2)Cn2cc(-c4ccc(C#N)cc4)cc2-c2nccn2-3)C1 [Example 119, 2-(4-Cyanophenyl)-N-(1-methylazetidin-3-yl)-9H-benzo[e]imidazo[2,1-c]pyrrolo [1,2-a][1,4]diazepine-7-carboxamide]	< 50	500 to 1000
CN(C)[C@H]1C[C@H](NC(=O)c2ccc3c(c2)Cn2cc(-c4ccc(C#N)cc4)cc2-c2nccn2-3)C1 [Example 126]	< 50	500 to 1000
CC(C)N1CC(NC(=O)c2ccc3c(c2)Cn2cc(-c4ccc(C#N)cc4)cc2-c2nccn2-3)C1 [Example 128]	< 50	500 to 1000

Next, values leading:

IC50 [1] [nM]	IC50 (THP-1 cells) [nM]	SMILES
< 50	500 to 1000	CN1CCC(NC(=O)c2ccc3c(c2)Cn2cc(-c4ccc(C#N)cc4)cc2-c2nccn2-3)C1 (centres unmarked) [Example 105]
< 50	50 to 100	N#Cc1ccc(-c2cc3n(c2)Cc2cc(C(=O)N4CC(C#N)C4)ccc2-n2ccnc2-3)cc1 [Example 110]
< 50	200 to 300	CN(C)C[C@H]1CCN1C(=O)c1ccc2c(c1)Cn1cc(-c3ccc(C#N)cc3)cc1-c1nccn1-2 [Example 115]
< 50	< 50	CN(C)C[C@@H]1CCN1C(=O)c1ccc2c(c1)Cn1cc(-c3ccc(C#N)cc3)cc1-c1nccn1-2 [Example 116]
